Measured values as given in PubChem BioAssay (NCI).
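GI50 marks 50% less growth. TGI: concentration producing complete growth inhibition.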

Tests used:
Experiment in all cases: NCI-60 cell line screen, 384-well format
786-0 renal = tested on: 786-0 renal
A498 renal = tested on: A498 renal
A549 NSCLC = tested on: A549 NSCLC
ACHN renal = tested on: ACHN renal
BT-549 breast = tested on: BT-549 breast
CAKI-1 renal = tested on: CAKI-1 renal
CCRF-CEM leukemia = tested on: CCRF-CEM leukemia
COLO 205 colon = tested on: COLO 205 colon
EKVX NSCLC = tested on: EKVX NSCLC
HCC-2998 colon = tested on: HCC-2998 colon
HCT-116 colon = tested on: HCT-116 colon
HCT-15 colon = tested on: HCT-15 colon
HL-60(TB) leukemia = tested on: HL-60(TB) leukemia
HOP-92 NSCLC = tested on: HOP-92 NSCLC
HS 578T breast = tested on: HS 578T breast
HT29 colon = tested on: HT29 colon
IGROV1 ovarian = tested on: IGROV1 ovarian
K-562 leukemia = tested on: K-562 leukemia
KM12 colon = tested on: KM12 colon
LOX IMVI melanoma = tested on: LOX IMVI melanoma
M14 melanoma = tested on: M14 melanoma
MALME-3M melanoma = tested on: MALME-3M melanoma
MCF7 breast = tested on: MCF7 breast
MDA-MB-231 breast = tested on: MDA-MB-231 breast
MDA-MB-435 melanoma = tested on: MDA-MB-435 melanoma
MDA-MB-468 breast = tested on: MDA-MB-468 breast
MOLT-4 leukemia = tested on: MOLT-4 leukemia
NCI-H226 lung = tested on: NCI-H226 lung
NCI-H23 lung = tested on: NCI-H23 lung
NCI-H322M lung = tested on: NCI-H322M lung
NCI-H460 NSCLC = tested on: NCI-H460 NSCLC
NCI-H522 lung = tested on: NCI-H522 lung
NCI/ADR-RES ovarian = tested on: NCI/ADR-RES ovarian
OVCAR-4 ovarian = tested on: OVCAR-4 ovarian
OVCAR-5 ovarian = tested on: OVCAR-5 ovarian
PC-3 prostate = tested on: PC-3 prostate
RPMI-8226 leukemia = tested on: RPMI-8226 leukemia
RXF 393 renal = tested on: RXF 393 renal
SF-268 CNS = tested on: SF-268 CNS
SF-295 CNS = tested on: SF-295 CNS
SF-539 CNS = tested on: SF-539 CNS
SK-MEL-2 melanoma = tested on: SK-MEL-2 melanoma
SK-MEL-5 melanoma = tested on: SK-MEL-5 melanoma
SK-OV-3 ovarian = tested on: SK-OV-3 ovarian
SN12C renal = tested on: SN12C renal
SNB-19 CNS = tested on: SNB-19 CNS
SNB-75 CNS = tested on: SNB-75 CNS
SR leukemia = tested on: SR leukemia
T-47D breast = tested on: T-47D breast
U251 glioblastoma = tested on: U251 glioblastoma
UACC-257 melanoma = tested on: UACC-257 melanoma
UACC-62 melanoma = tested on: UACC-62 melanoma
UO-31 renal = tested on: UO-31 renal

Work on `CC(C)c1cc(-c2n[nH]c(=O)n2-c2ccc3c(ccn3C)c2)c(O)cc1O` yielded a GI50 ([…]-0 renal) of under 10 nM, a TGI (786-0 renal) of 78.1 nM and a GI50 (A498 renal) of 26.1 nM. It also gave a TGI (A498 renal) of 17200 nM, a GI50 (A549 NSCLC) of under 10 nM and a TGI (A549 NSCLC) of 14000 nM. It also gave a GI50 (ACHN renal) of under 10 nM, a TGI (ACHN renal) of over 100000 nM and a GI50 (BT-549 breast) of under 10 nM. The TGI (BT-549 breast) was under 10 nM, the GI50 (CAKI-1 renal) was 19.5 nM and the TGI (CAKI-1 renal) was 18000 nM. For the same compound, the GI50 (CCRF-CEM leukemia) was under 10 nM, the TGI (CCRF-CEM leukemia) was 15.2 nM and the GI50 (COLO 205 colon) was under 10 nM. For the same compound, the TGI (COLO 205 colon) was 56.7 nM, the GI50 (EKVX NSCLC) was 11.8 nM and the TGI (EKVX NSCLC) was 76.3 nM. It also gave a GI50 (HCC-2998 colon) of under 10 nM, a TGI (HCC-2998 colon) of 15.6 nM and a GI50 (HCT-116 colon) of 18.8 nM. It also gave a TGI (HCT-116 colon) of 10500 nM, a GI50 (HCT-15 colon) of under 10 nM and a TGI (HCT-15 colon) of 13100 nM. It also gave a GI50 (HL-60(TB) leukemia) of under 10 nM, a TGI (HL-60(TB) leukemia) of under 10 nM and a GI50 (HOP-92 NSCLC) of 11.8 nM. For the same compound, the TGI (HOP-92 NSCLC) was 36.3 nM, the GI50 (HS 578T breast) was under 10 nM and the TGI (HS 578T breast) was 61.5 nM. It also gave a GI50 (HT29 colon) of 36.4 nM, a TGI (HT29 colon) of 13400 nM and a GI50 (IGROV1 ovarian) of under 10 nM. It also gave a TGI (IGROV1 ovarian) of 21.4 nM, a GI50 (K-562 leukemia) of under 10 nM and a TGI (K-562 leukemia) of 27 nM. It also gave a GI50 (KM12 colon) of under 10 nM, a TGI (KM12 colon) of 84.9 nM and a GI50 (LOX IMVI melanoma) of under 10 nM. It also gave a TGI (LOX IMVI melanoma) of 20.7 nM, a GI50 (M14 melanoma) of under 10 nM and a TGI (M14 melanoma) of 2690 nM. For the same compound, the GI50 (MALME-3M melanoma) was under 10 nM, the TGI (MALME-3M melanoma) was under 10 nM and the GI50 (MCF7 breast) was under 10 nM. The TGI (MCF7 breast) was 16400 nM, the GI50 (MDA-MB-231 breast) was 19.1 nM and the TGI (MDA-MB-231 breast) was 72 nM. For the same compound, the GI50 (MDA-MB-435 melanoma) was under 10 nM, the TGI (MDA-MB-435 melanoma) was 22600 nM and the GI50 (MDA-MB-468 breast) was under 10 nM. For the same compound, the TGI (MDA-MB-468 breast) was under 10 nM, the GI50 (MOLT-4 leukemia) was under 10 nM and the TGI (MOLT-4 leukemia) was under 10 nM. It also gave a GI50 (NCI-H226 lung) of 46.5 nM, a TGI (NCI-H226 lung) of 603 nM and a GI50 (NCI-H23 lung) of under 10 nM. It also gave a TGI (NCI-H23 lung) of 23.8 nM, a GI50 (NCI-H322M lung) of 19.9 nM and a TGI (NCI-H322M lung) of 16200 nM. For the same compound, the GI50 (NCI-H460 NSCLC) was under 10 nM, the TGI (NCI-H460 NSCLC) was under 10 nM and the GI50 (NCI-H522 lung) was under 10 nM. For the same compound, the TGI (NCI-H522 lung) was under 10 nM, the GI50 (NCI/ADR-RES ovarian) was 22.6 nM and the TGI (NCI/ADR-RES ovarian) was 69.1 nM. The GI50 (OVCAR-4 ovarian) was under 10 nM, the TGI (OVCAR-4 ovarian) was over 100000 nM and the GI50 (OVCAR-5 ovarian) was 21.8 nM. The TGI (OVCAR-5 ovarian) was 13500 nM, the GI50 (PC-3 prostate) was 10.2 nM and the TGI (PC-3 prostate) was 52.7 nM. For the same compound, the GI50 (RPMI-8226 leukemia) was under 10 nM, the TGI (RPMI-8226 leukemia) was 12.9 nM and the GI50 (RXF 393 renal) was under 10 nM. It also gave a TGI (RXF 393 renal) of 11500 nM, a GI50 (SF-268 CNS) of 15.4 nM and a TGI (SF-268 CNS) of 28400 nM. The GI50 (SF-295 CNS) was 17 nM, the TGI (SF-295 CNS) was 46.6 nM and the GI50 (SF-539 CNS) was under 10 nM. The TGI (SF-539 CNS) was under 10 nM, the GI50 (SK-MEL-2 melanoma) was under 10 nM and the TGI (SK-MEL-2 melanoma) was under 10 nM. For the same compound, the GI50 (SK-MEL-5 melanoma) was under 10 nM, the TGI (SK-MEL-5 melanoma) was 3690 nM and the GI50 (SK-OV-3 ovarian) was 12.3 nM. It also gave a TGI (SK-OV-3 ovarian) of 2440 nM, a GI50 (SN12C renal) of under 10 nM and a TGI (SN12C renal) of 36.7 nM. The GI50 (SNB-19 CNS) was 13.4 nM, the TGI (SNB-19 CNS) was 74.5 nM and the GI50 (SNB-75 CNS) was under 10 nM. The TGI (SNB-75 CNS) was 46 nM, the GI50 (SR leukemia) was under 10 nM and the TGI (SR leukemia) was under 10 nM. The GI50 (T-47D breast) was 28.2 nM, the TGI (T-47D breast) was 1570 nM and the GI50 (U251 glioblastoma) was under 10 nM. The TGI (U251 glioblastoma) was 24.3 nM, the GI50 (UACC-257 melanoma) was 42.4 nM and the TGI (UACC-257 melanoma) was 22600 nM. It also gave a GI50 (UACC-62 melanoma) of under 10 nM, a TGI (UACC-62 melanoma) of 31.6 nM and a GI50 (UO-31 renal) of under 10 nM. It also gave a TGI (UO-31 renal) of 11800 nM.
